# Counter-ions that a name gives are not always drawn.
# Target: T1, HGFR (Homo sapiens, UniProt P08581)
# T1 construct: purchased Upstate 14-526
# Experiment: HGFR continuous-coupled spectrophotometric assay (tyrosine kinase activity on Met-2 substrate peptide)
# Assay type: biochemical
# Settings: HGFR 50 nM, Met-2 peptide 0.5 mM, ATP 300 μM, 37° C., absorbance 340 nm; read-out: Ki
# T1 sequence (P08581 974-1390 limits assumed): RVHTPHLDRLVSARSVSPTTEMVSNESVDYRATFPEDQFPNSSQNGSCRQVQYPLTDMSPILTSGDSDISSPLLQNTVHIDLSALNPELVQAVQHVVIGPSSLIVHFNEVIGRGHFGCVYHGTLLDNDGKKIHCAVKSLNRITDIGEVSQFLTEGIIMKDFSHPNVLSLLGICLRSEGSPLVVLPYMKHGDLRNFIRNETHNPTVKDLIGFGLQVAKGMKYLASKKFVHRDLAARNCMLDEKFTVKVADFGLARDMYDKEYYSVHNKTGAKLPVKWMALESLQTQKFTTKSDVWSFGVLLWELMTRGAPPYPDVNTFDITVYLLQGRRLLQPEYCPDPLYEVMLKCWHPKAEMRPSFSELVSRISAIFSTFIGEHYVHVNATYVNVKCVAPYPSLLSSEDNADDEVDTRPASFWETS
row,Compound,Ki [µM]
1,"CC(C)(C)OC(=O)NC[C@H]1CCN(c2cnc3nnn(Cc4ccc5ncccc5c4)c3n2)C1 [Example 133, tert-butyl ({(3R)-1-[1-(quino-lin-6-yl-methyl)-1H-[1,2,3]tri-azolo[4,5-b]pyra-zin-6-yl]pyrro-lidin-3-yl}meth-yl)carbamate]",0.051
2,"CCC1C(=O)NCCN1c1cnc2nnn(Cc3ccc4ncccc4c3)c2n1 (stereo not drawn) [Example 97, 3-ethyl-4-[1-(quino-lin-6-yl-methyl)-1H-[1,2,3]tri-azolo[4,5-b]pyra-zin-6-yl]pipe-razin-2-one]",0.02
3,"c1cnc2ccc(Cn3nnc4ncc(-c5ccn[nH]5)nc43)cc2c1 [Example 69, 6-[6-(2H-Pyrazol-3-yl)-[1,2,3]triazolo[4,5-b]pyrazin-1-ylmethyl]-quinoline]",0.003
4,"COCCn1cc(-c2cnc3nnn(Cc4ccc5ncccc5c4)c3n2)cn1 [Example 6, 6-((6-(1-(2-methoxyethyl)-1H-pyrazol-4-yl)-1H-[1,2,3]triazolo[4,5-b]pyrazin-1-yl)methyl)-quinoline]",0.011
5,"Cc1c(CNc2cnc3nnn(Cc4ccc5ncccc5c4)c3n2)cnn1C [Example 128, N-[(15-di-methyl-1H-pyra-zol-4-yl)meth-yl]-1-(quino-lin-6-yl-methyl)-1H-[1,2,3]tri-azolo[4,5-b]pyra-zin-6-amine]",0.028
6,"COCCNc1cnc2nnn(Cc3ccc4ncccc4c3)c2n1 [Example 71, N-(2-meth-oxyethyl)-1-(quino-lin-6-yl-methyl)-1H-[1,2,3]tri-azolo[4,5-b]py-rain-6-amine]",0.023
7,"C[C@@H](O)CNc1cnc2nnn(Cc3ccc4ncccc4c3)c2n1 [Example 114, (2R)-1-{[1-(quino-lin-6-yl-methyl)-1H-[1,2,3]tri-azolo[4,5-b]pyra-zin-6-yl]ami-no}propan-2-ol]",0.04
8,"CC(c1ccc2c(c1)OCCO2)n1nnc2ncc(-c3cnn(C)c3)nc21 (stereo not drawn) [Example 56, 1-[1-(2,3-Dihydro-benzo[1,4]dioxin-6-yl)-ethyl]-6-(1-methyl-1H-pyrazol-4-yl)-1H-[1,2,3]triazolo[4,5-b]pyrazine]",0.037
9,"CN(Cc1cc(-c2ccccn2)no1)c1cnc2nnn(Cc3ccc4ncccc4c3)c2n1 [Example 93, N-methyl-N-[(3-pyri-din-2-ylisoxa-zol-5-yl)meth-yl]-1-(quino-lin-6-yl-methyl)-1H-[1,2,3]tri-azolo[4,5-b]pyra-zin-6-amine]",0.029
10,"c1cnc2ccc(Cn3nnc4ncc(N5CCCC5)nc43)cc2c1 [Example 164, 6-[(6-pyrrolidin-1-yl-1H-[1,2,3]tri-azolo[4,5-b]pyra-zin-1-yl)meth-yl]quinoline]",0.014
11,"N[C@@H]1CCCN(c2cnc3nnn(Cc4ccc5ncccc5c4)c3n2)C1 [Example 31, (R)-1-(3-(quinolin-6-ylmethyl)-3H-[1,2,3]triazolo[4,5-b]pyrazin-5-yl)piperidin-3-amine dihydrochloride]",0.059
12,"C[C@H]1CN(c2cnc3nnn(Cc4ccc5ncccc5c4)c3n2)C[C@]1(C)CO [Example 107, {(3R,4R)-3,4-di-methyl-1-[1-(quino-lin-6-yl-methyl)-1H-[1,2,3]tri-azolo[4,5-b]pyra-zin-6-yl]pyrro-lidin-3-yl}meth-anol]",0.047
13,"c1cnc2ccc(Cn3nnc4ncc(NC5CCOC5)nc43)cc2c1 (stereo not drawn) [Example 123, 1-(quinolin-6-yl-methyl)-N-(tetra-hydrofuran-3-yl)-1H-[1,2,3]tri-azolo[4,5-b]pyra-zin-6-amine]",0.008
14,"CC(O)CNc1cnc2nnn(Cc3ccc4ncccc4c3)c2n1 (stereo not drawn) [Example 113, 1-{[1-(quinolin-6-yl-methyl)-1H-[1,2,3]tri-azolo[4,5-b]pyra-zin-6-yl]ami-no}propan-2-ol]",0.008
15,"N#CC1CCN(C2CCN(c3cnc4nnn(Cc5ccc6ncccc6c5)c4n3)C2)CC1 (stereo in doubt) [Example 148, 1-{(3R)-1-[1-(quino-lin-6-yl-methyl)-1H-[1,2,3]tri-azolo[4,5-b]pyra-zin-6-yl]pyrro-lidin-3-yl}pipe-ridine-4-carbo-nitrile]",0.03
16,"c1cnc2ccc(Cn3nnc4ncc(-n5cccn5)nc43)cc2c1 [Example 22, 6-((6-(1H-pyrazol-1-yl)-1H-[1,2,3]triazolo[4,5-b]pyrazin-1-yl)methyl)-quinoline]",0.012
17,"CC(C)(C(N)=O)n1cc(-c2cnc3nnn(Cc4ccc5ncccc5c4)c3n2)cn1 [Example 67, 2-[4-(3-Quinolin-6-ylmethyl-3H-[1,2,3]triazolo[4,5-b]pyrazin-5-yl)-pyrazol-1-yl]-isobutyramide]",0.041
18,"c1cnc2ccc(Cn3nnc4ncc(N5CC[C@@H](N6CCOCC6)C5)nc43)cc2c1 [Example 206, 6-({6-[(3R)-3-morpho-lin-4-ylpyrro-lidin-1-yl]-1H-[1,2,3]tri-azolo[4,5-b]pyra-zin-1-yl}meth-yl)quinoline. TFA salt]",0.022
19,"OCC1CCN(c2cnc3nnn(Cc4ccc5ncccc5c4)c3n2)CC1 [Example 80, {1-[1-(quinolin-6-yl-methyl)-1H-[1,2,3]tri-azolo[4,5-b]py-razin-6-yl]pipe-ridin-4-yl}methanol]",0.021

row,Compound,Ki [µM]
1,"CCN1CCN(c2cnc3nnn(Cc4ccc5ncccc5c4)c3n2)C(C)C1=O (stereo not drawn) [Example 82, 1-ethyl-3-meth-yl-4-[1-(quino-lin-6-yl-methyl)-1H-[1,2,3]tri-azolo[4,5-b]pyra-zin-6-yl]pipe-razin-2-one]",0.015
2,"C[C@H](O)CNc1cnc2nnn(Cc3ccc4ncccc4c3)c2n1 [Example 117, (2S)-1-{[1-(quino-lin-6-yl-methyl)-1H-[1,2,3]tri-azolo[4,5-b]pyra-zin-6-yl]ami-no}propan-2-ol]",0.011
3,"c1cnc2ccc(Cn3nnc4ncc(N5CCNCC5)nc43)cc2c1 [Example 33, 6-((6-(piperazin-1-yl)-1H-[1,2,3]triazolo[4,5-b]pyrazin-1-yl)methyl)quinoline]",0.01
4,"CC1(C)CN(c2cnc3nnn(Cc4ccc5ncccc5c4)c3n2)C(=O)N1 [Example 190, 4,4-dimethyl-1-[1-(quino-lin-6-yl-methyl)-1H-[1,2,3]tri-azolo[4,5-b]pyra-zin-6-yl]imida-zolidin-2-one]",0.647
5,OC[C@@H]1C[C@H](F)CN1c1cnc2nnn(Cc3ccc4ncccc4c3)c2n1 [Example 96],0.017
6,"CC1(CO)CCCN(c2cnc3nnn(Cc4ccc5ncccc5c4)c3n2)C1 (stereo not drawn) [Example 90, {3-methyl-1-[1-(quino-lin-6-yl-methyl)-1H-[1,2,3]tri-azolo[4,5-b]pyra-zin-6-yl]pipe-ridin-3-yl}methanol]",0.039
7,"c1cnc2ccc(Cn3nnc4ncc(OC5CCOCC5)nc43)cc2c1 [Example 142, 6-{[6-(tetra-hydro-2H-py-ran-4-yloxy)-1H-[1,2,3]tri-azolo[4,5-b]pyra-zin-1-yl]meth-yl}quinoline]",0.049
8,"CC(C)(N)CNc1cnc2nnn(Cc3ccc4ncccc4c3)c2n1 [Example 141, 2-methyl-N~1~-[1-(quino-lin-6-yl-methyl)-1H-[1,2,3]tri-azolo[4,5-b]pyra-zin-6-yl]pro-pane-1,2-diamine]",0.006
9,"CCN(CC)c1cnc2nnn(Cc3ccc4ncccc4c3)c2n1 [Example 160, N,N-diethyl-1-(quino-lin-6-yl-methyl)-1H-[1,2,3]tri-azolo[4,5-b]pyra-zin-6-amine]",0.013
10,"CC1(CNc2cnc3nnn(Cc4ccc5ncccc5c4)c3n2)COC1 [Example 130, N-[(3-methyl-oxetan-3-yl)meth-yl]-1-(quino-lin-6-yl-methyl)-1H-[1,2,3]tri-azolo[4,5-b]pyra-zin-6-amine]",0.007
11,"CNCC1(O)CCN(c2cnc3nnn(Cc4ccc5ncccc5c4)c3n2)C1 (stereo not drawn) [Example 155, 3-[(meth-ylamino)meth-yl]-1-[1-(quino-lin-6-yl-methyl)-1H-[1,2,3]tri-azolo[4,5-b]pyra-zin-6-yl]pyrro-lidin-3-ol]",0.043
12,"c1cnc2ccc(Cn3nnc4ncc(-c5cnn([C@H]6CCOC6)c5)nc43)cc2c1 [Example 62, 6-{6-[(S)-1-(Tetrahydro-furan-3-yl)-1H-pyrazol-4-yl]-[1,2,3]triazolo[4,5-b]pyrazin-1-ylmethyl}-quinoline]",0.013
13,"C[C@H](O)CNc1cnc2nnn(Cc3cc4cccnc4cc3F)c2n1 [Example 173, (2)-1-({1-[(7-fluoro-quinolin-6-yl)meth-yl]-1H-[1,2,3]tri-azolo[4,5-b]pyra-zin-6-yl}ami-no)propan-2-ol]",0.004
14,"c1cnc2ccc(Cn3nnc4ncc(NCc5cnn6cccnc56)nc43)cc2c1 [Example 122, N-(pyrazolo[15-a]pyrimi-din-3-yl-methyl)-1-(quino-lin-6-yl-methyl)-1H-[1,2,3]tri-azolo[4,5-b]pyra-zin-6-amine]",0.025
15,"O=C1CN(c2cnc3nnn(Cc4ccc5ncccc5c4)c3n2)CCN1 [Example 83, 4-[1-(quinolin-6-yl-methyl)-1H-[1,2,3]tri-azolo[4,5-b]py-razin-6-yl]pipe-razin-2-one]",0.034
16,"COC(=O)C(C)(C)n1cc(-c2cnc3nnn(Cc4ccc5ncccc5c4)c3n2)cn1 [Example 65, 2-Methyl-2-[4-(3-quinolin-6-ylmethyl-3H-[1,2,3]triazolo[4,5-b]pyrazin-5-yl)-pyrazol-1-yl]-propionic acid methyl ester]",0.047
17,"CCCCOc1cnc2nnn(Cc3ccc4ncccc4c3)c2n1 [Example 161, 6-[(6-butoxy-1H-[1,2,3]tri-azolo[4,5-b]pyra-zin-1-yl)meth-yl]quinoline]",0.014
18,"CC(C)(CO)Nc1cnc2nnn(Cc3ccc4ncccc4c3)c2n1 [Example 139, 2-methyl-2-{[1-(quino-lin-6-yl-methyl)-1H-[1,2,3]tri-azolo[4,5-b]pyra-zin-6-yl]ami-no}propan-1-ol]",0.021
19,"c1cnc2ccc(Cn3nnc4ncc(NC5CCOCC5)nc43)cc2c1 [Example 143, 1-(quinolin-6-yl-methyl)-N-(tetra-hydro-2H-py-ran-4-yl)-1H-[1,2,3]tri-azolo[4,5-b]py-razin-6-amine]",0.009

# Same assay, conditions: Ki, HGFR 50 nM, Met-2 peptide 0.5 mM, ATP 300 μM, 37° C., absorbance 340 nm
row,Compound,Ki [µM]
1,"c1cnc2ccc(Cn3nnc4ncc(N5CCc6nc[nH]c6C5)nc43)cc2c1 [Example 100, 6-{[6-(3,4,6,7-tetra-hydro-5H-imi-dazo[4,5-c]pyri-din-5-yl)-1H-[1,2,3]tri-azolo[4,5-b]pyra-zin-1-yl]meth-yl}quinoline]",0.037

# From patent US7732604B2, “Triazolopyrazine derivatives” (Pfizer Inc., priority 2006, dated 2010)
